In US20130172318A1, “ANTI-INFLAMMATORY AGENTS” (priority 2010, published 2013):

Tests used:
[1] = test system: chemokine-induced migration; settings: cited from earlier work
[2] = test system: MCP-1 induced migration of THP-1 cells; assay: Inhibition of MCP-1 induced leukocyte migration (transwell, THP-1 cells); type: cell-based; settings: Homo sapiens, MCP-1 25 ng/ml, 2 hours 37° C., read-out: ED50 (concentration required to reduce the MCP-1-induced migration by 50%)
Procedure: In principle, this assay consists of two chambers separated by a porous membrane. The chemoattractant is placed in the lower compartment and the cells are placed in the upper compartment. After incubation for a period at 37° C. the cells move towards the chemoattractant, and the number of cells in the lower compartment is proportional to the chemoattractant activity (relative to a series of controls).
The THP-1 cell line (European Cell culture Collection) were used as the leukocyte cell population.
The following procedure is used for testing the invention compounds for MCP-1 induced leukocyte migration:
First, the cell suspension to be placed in the upper compartment is prepared. The THP-1 cells are pelleted by centrifugation (770×g; 4 mins) and washed with Geys Balanced Salt Solution with 1 mg/ml BSA (GBSS+BSA). This wash is then repeated, and the cells repelleted before being resuspended in a small volume of GBSS+BSA for counting, for example using a standard haemocytometer.
The volume of GBSS+BSA is then adjusted depending on the number of cells present so that the cells are at final density of 4.45×10^6 cells per ml of GBSS+BSA. This ensures that there are […] THP-1 cells in each 25 μl of the solution that will be placed in the upper chamber of the plate.
To test a single compound for its ability to inhibit MCP-1 induced migration, it is necessary to prepare two lots of cells. The suspension of THP-1 cells at 4.45×10^6 cells/ml is divided into two pots. To one pot the inhibitor under test is added at an appropriate final concentration, in an appropriate vehicle (for example at 1 μM in not more than 1% DMSO). To the second pot an equal volume of GBSS+BSA plus vehicle as appropriate (e.g. not more than 1% DMSO) is added to act as a control.
Next, the chemoattractant solution to be placed in the lower compartment is prepared. MCP-1 is diluted in GBSS+BSA to give a final concentration of 25 ng/ml. This is divided into two pots, as for the cell suspension. To one pot, the test compound is added to the same final concentration as was added to the cell suspension, while to the other pot an equal volume of GBSS+BSA plus vehicle as appropriate (e.g. not more than 1% DMSO) is added.
Note that the volume of liquid that needs to be added to make the addition of the text compound needs to be taken into account, when establishing the final concentration of MCP-1 in the solution for the lower compartment and the final concentration of cells in the upper compartment.
Once the chemoattractant solutions for the lower wells and cell solutions for the upper chambers have been prepared, the migration chamber should be assembled. Place 29 μl of the appropriate chemoattractant solution into the lower well of the chamber. Assays should be performed with at least triplicate determinations of each condition. Once all the lower chambers have been filled, apply the prous membrane to the chamber in accordance with the manufacturer's instructions. Finally, apply 25 μl of the appropriate cell solution to each upper chamber. A plastic lid is placed over the entire apparatus to prevent evaporation.
The assembled chamber is incubated at 37° C., 5% CO2, for 2 hours. A suspension of cells in GBSS+BSA is also incubated under identical conditions in a tube: these cells will be used to construct a standard curve for determining the number of cells that have migrated to the lower chamber under each condition.
At the end of the incubation, the liquid cell suspension is gently removed from the upper chamber, and 20 μl of ice-cold 20 mM EDTA in PBS is added to the upper chamber, and the apparatus is incubated at 4° C. for 15 mins. This procedure causes any cells adhering to the underside of the membrane to fall into the lower chamber.
After this incubation the filter is carefully flushed with GBSS+BSA to wash off the EDTA, and then the filter is removed. […]

[3] = 37° C.; cited from earlier work
[4] = cited from earlier work

| Compound | melting point | other results |
| --- | --- | --- |
| CCCCCCCCCC(C)(C)CC(=O)NC1CCCCNC1=O (stereo not shown) [3′3′-dimethyldodecanoyl-3-aminocaprolactam] | – | BSCI potency/activity in words (comparative) [1]: no more potent |
| O=C(N[C@H]1CCCNC1=O)c1cccc(F)c1 [Example 1, (S)-3-Fluoro-N-(2-oxopiperidin-3-yl)benzamide] | 164 to 166 °C | – |
| O=C(N[C@H]1CCCNC1=O)c1cccc(C(F)(F)F)c1 [Example 5, (S)—N-(2-Oxopiperidin-3-yl)-3-(trifluoromethyl)benzamide] | 148 to 150 °C | – |
| O=C(N[C@H]1CCCNC1=O)c1ccccc1C(F)(F)F [Example 6, (S)—N-(2-Oxopiperidin-3-yl)-2-(trifluoromethyl)benzamide] | 155 to 156 °C | – |
| O=C(N[C@H]1CCCNC1=O)c1ccc(F)c(F)c1 [Example 11, (S)-3,4-difluoro-N-(2-oxopiperidin-3-yl)benzamide] | 202 to 204 °C | – |
| CCc1ccc(C(=O)N[C@H]2CCCNC2=O)cc1 [Example 15, (S)-3-(4′-Ethylbenzoylamino)-tetrahydropyridin-2-one] | 112 to 113 °C | – |
| CCCCc1ccc(C(=O)N[C@H]2CCCCNC2=O)cc1 [Example 16, (S)-3-(4′-Butylbenzoylamino)-azepan-2-one] | 183 to 184 °C | – |
| CC(C)(C)c1ccc(C(=O)N[C@H]2CCCCNC2=O)cc1 [Example 19, (S)-3-(4′-tert-Butylbenzoylamino)-azepan-2-one] | 204 to 205 °C | – |
| CC(C)(C)c1ccc(C(=O)N[C@H]2CCCNC2=O)cc1 [Example 20, (S)-3-(4′-tert-Butylbenzoylamino)-tetrahydropyridin-2-one] | 195 to 196 °C | – |
| CC(C)(C)c1ccc(C(=O)N[C@@H]2CCCNC2=O)cc1 [Example 21, (R)-3-(4′-tert-Butylbenzoylamino)-tetrahydropyridin-2-one] | 193 to 194 °C | – |
| CCCCCCc1ccc(C(=O)N[C@H]2CCCCNC2=O)cc1 [Example 22, (S)-3-(4′-Hexylbenzoylamino)-azepan-2-one] | 167 to 168 °C | – |
| CCCCCCc1ccc(C(=O)N[C@H]2CCCNC2=O)cc1 [Example 23, (S)-3-(4′-Hexylbenzoylamino)-tetrahydropyridin-2-one] | 118 to 119 °C | – |
| CCCCCCCCc1ccc(C(=O)N[C@@H]2CCCNC2=O)cc1 [Example 27, (R)-3-(4′-Octylbenzoylamino)-tetrahydropyridin-2-one] | 122 to 123 °C | – |
| O=C(NC1CCCNC1=O)c1ccccc1 (stereo not shown) [Reference Example 1, 3-(Benzoylamino)tetrahydropyridin-2-one] | – | EC50 [2]: ≤ 100 nM |
| O=C(NC1CCCCNC1=O)c1ccccc1 (stereo not shown) [Reference Example 2, 3-(Benzoylamino)azepan-2-one] | – | EC50 [2]: ≤ 100 nM |
| Cc1ccc(C(=O)NC2CCCNC2=O)cc1 (stereo not shown) [Reference Example 3, 3-(4′-Methylbenzoylamino)tetrahydropyridin-2-one] | – | EC50 [2]: ≤ 100 nM |
| Cc1ccc(C(=O)NC2CCCCNC2=O)cc1 (stereo not shown) [Reference Example 4, 3-(4′-Methylbenzoylamino)azepan-2-one] | – | EC50 [2]: ≤ 100 nM |
| O=C(NC1CCCNC1=O)c1ccc(Cl)cc1 (stereo not shown) [Reference Example 5, 3-(4′-Chlorobenzoylamino)tetrahydropyridin-2-one] | – | EC50 [2]: ≤ 100 nM |
| O=C(NC1CCCCNC1=O)c1ccc(Cl)cc1 (stereo not shown) [Reference Example 6, 3-(4′-Chlorobenzoylamino)azepan-2-one] | – | EC50 [2]: ≤ 100 nM |
| COc1ccc(C(=O)NC2CCCNC2=O)cc1 (stereo not shown) [Reference Example 7, 3-(4′-Methoxybenzoylamino)tetrahydropyridin-2-one] | – | EC50 [2]: ≤ 100 nM |
| COc1ccc(C(=O)NC2CCCCNC2=O)cc1 (stereo not shown) [Reference Example 8, 3-(4′-Methoxybenzoylamino)azepan-2-one] | – | EC50 [2]: ≤ 100 nM |
| O=C(NC1CCCNC1=O)c1ccc(F)cc1 (stereo not shown) [Reference Example 9, 3-(4′-Fluorobenzoylamino)tetrahydropyridin-2-one] | – | EC50 [2]: ≤ 100 nM |
| O=C(NC1CCCCNC1=O)c1ccc(F)cc1 (stereo not shown) [Reference Example 10, 3-(4′-Fluorobenzoylamino)azepan-2-one] | – | EC50 [2]: ≤ 100 nM |
| Cc1cc(C)cc(C(=O)NC2CCCNC2=O)c1 (stereo not shown) [Reference Example 13, 3-(3′,5′-Dimethylbenzoylamino)tetrahydropyridin-2-one] | – | EC50 [2]: ≤ 100 nM |
| Cc1cc(C)cc(C(=O)NC2CCCCNC2=O)c1 (stereo not shown) [Reference Example 14, 3-(3′,5′-Dimethylbenzoylamino)azepan-2-one] | – | EC50 [2]: ≤ 100 nM |
| CCCCCCCCCC=CC(=O)NC1CCCCNC1=O (stereo not shown) [dodec-2′,3′-enoyl-3-aminocaprolactam] | – | BSCI potency/activity in words (comparative) [1]: markedly lower potency |
| (S)-3-(undec-10-enoyl)-tetrahydropyridin-2-one | – | BSCI potency/activity in words (comparative) [1]: considerably reduced potency; time completely stable in human serum [3]: at least 7 days |
| c(DCys-DGln-DIle-DTrp-DLys-DGln-DLys-DPro-DAsp-DLeu-DCys)-NH2 [NR58-3.14.3] | – | half-life period of clearance from blood plasma ([4]; after intravenous injection): less than 30 minutes; oral bioavailability ([4]; in vivo, po): not orally bioavailable |

Continued, in another order:

| melting point | Compound | other results |
| --- | --- | --- |
| 166 to 168 °C | O=C(N[C@H]1CCCNC1=O)c1ccccc1F [Example 2, (S)-2-Fluoro-N-(2-oxopiperidin-3-yl)benzamide] | – |
| 212 to 214 °C | O=C(N[C@H]1CCCNC1=O)c1ccc(C(F)(F)F)cc1 [Example 4, (S)—N-(2-Oxopiperidin-3-yl)-4-(trifluoromethyl)benzamide] | – |
| 160 to 162 °C | O=C(N[C@H]1CCCNC1=O)c1cccc(F)c1F [Example 7, (S)-2,3-difluoro-N-(2-oxopiperidin-3-yl)benzamide] | – |
| 140 to 141 °C | O=C(N[C@H]1CCCNC1=O)c1ccc(F)cc1F [Example 8, (S)-2,4-difluoro-N-(2-oxopiperidin-3-yl)benzamide] | – |
| 140 to 142 °C | O=C(N[C@H]1CCCNC1=O)c1cc(F)ccc1F [Example 9, (S)-2,5-difluoro-N-(2-oxopiperidin-3-yl)benzamide] | – |
| 190 to 194 °C | O=C(N[C@H]1CCCNC1=O)c1c(F)cccc1F [Example 10, (S)-2,6-difluoro-N-(2-oxopiperidin-3-yl)benzamide] | – |
| 198 to 199 °C | O=C(N[C@H]1CCCNC1=O)c1cc(F)cc(F)c1 [Example 12, (S)-3,5-difluoro-N-(2-oxopiperidin-3-yl)benzamide] | – |
| 218 to 219 °C | CCc1ccc(C(=O)N[C@H]2CCCCNC2=O)cc1 [Example 14, (S)-3-(4′-Ethylbenzoylamino)-azepan-2-one] | – |
| 117 to 118 °C | CCCCc1ccc(C(=O)N[C@H]2CCCNC2=O)cc1 [Example 17, (S)-3-(4′-Butylbenzoylamino)-tetrahydropyridin-2-one] | – |
| 116 to 117 °C | CCCCc1ccc(C(=O)N[C@@H]2CCCNC2=O)cc1 [Example 18, (R)-3-(4′-Butylbenzoylamino)-tetrahydropyridin-2-one] | – |
| 117 to 118 °C | CCCCCCc1ccc(C(=O)N[C@@H]2CCCNC2=O)cc1 [Example 24, (R)-3-(4′-Hexylbenzoylamino)-tetrahydropyridin-2-one] | – |
| 159 to 160 °C | CCCCCCCCc1ccc(C(=O)N[C@H]2CCCCNC2=O)cc1 [Example 25, (S)-3-(4′-Octylbenzoylamino)-azepan-2-one] | – |
| 122 to 123 °C | CCCCCCCCc1ccc(C(=O)N[C@H]2CCCNC2=O)cc1 [Example 26, (S)-3-(4′-Octylbenzoylamino)-tetrahydropyridin-2-one] | – |
